Consider 35 compounds from patent US8999976B2, “Modulators of cystic fibrosis transmembrane conductance regulator” (Vertex Pharmaceuticals Incorporated, priority 2008, dated 2015).

Usually Emax stands for the maximal effect, on the per cent scale that the assay sets. The EC50 is the concentration needed to bring the measured effect to its halfway point.

Where a name gives a salt, the structure may show the parent alone.

In the experiment the target is T1, ΔF508-CFTR (Homo sapiens, UniProt P13569, DEL508-508).
T1 construct: expressed in transfected cells
T1 sequence (P13569 with tags, fused parts or gaps DEL508-508): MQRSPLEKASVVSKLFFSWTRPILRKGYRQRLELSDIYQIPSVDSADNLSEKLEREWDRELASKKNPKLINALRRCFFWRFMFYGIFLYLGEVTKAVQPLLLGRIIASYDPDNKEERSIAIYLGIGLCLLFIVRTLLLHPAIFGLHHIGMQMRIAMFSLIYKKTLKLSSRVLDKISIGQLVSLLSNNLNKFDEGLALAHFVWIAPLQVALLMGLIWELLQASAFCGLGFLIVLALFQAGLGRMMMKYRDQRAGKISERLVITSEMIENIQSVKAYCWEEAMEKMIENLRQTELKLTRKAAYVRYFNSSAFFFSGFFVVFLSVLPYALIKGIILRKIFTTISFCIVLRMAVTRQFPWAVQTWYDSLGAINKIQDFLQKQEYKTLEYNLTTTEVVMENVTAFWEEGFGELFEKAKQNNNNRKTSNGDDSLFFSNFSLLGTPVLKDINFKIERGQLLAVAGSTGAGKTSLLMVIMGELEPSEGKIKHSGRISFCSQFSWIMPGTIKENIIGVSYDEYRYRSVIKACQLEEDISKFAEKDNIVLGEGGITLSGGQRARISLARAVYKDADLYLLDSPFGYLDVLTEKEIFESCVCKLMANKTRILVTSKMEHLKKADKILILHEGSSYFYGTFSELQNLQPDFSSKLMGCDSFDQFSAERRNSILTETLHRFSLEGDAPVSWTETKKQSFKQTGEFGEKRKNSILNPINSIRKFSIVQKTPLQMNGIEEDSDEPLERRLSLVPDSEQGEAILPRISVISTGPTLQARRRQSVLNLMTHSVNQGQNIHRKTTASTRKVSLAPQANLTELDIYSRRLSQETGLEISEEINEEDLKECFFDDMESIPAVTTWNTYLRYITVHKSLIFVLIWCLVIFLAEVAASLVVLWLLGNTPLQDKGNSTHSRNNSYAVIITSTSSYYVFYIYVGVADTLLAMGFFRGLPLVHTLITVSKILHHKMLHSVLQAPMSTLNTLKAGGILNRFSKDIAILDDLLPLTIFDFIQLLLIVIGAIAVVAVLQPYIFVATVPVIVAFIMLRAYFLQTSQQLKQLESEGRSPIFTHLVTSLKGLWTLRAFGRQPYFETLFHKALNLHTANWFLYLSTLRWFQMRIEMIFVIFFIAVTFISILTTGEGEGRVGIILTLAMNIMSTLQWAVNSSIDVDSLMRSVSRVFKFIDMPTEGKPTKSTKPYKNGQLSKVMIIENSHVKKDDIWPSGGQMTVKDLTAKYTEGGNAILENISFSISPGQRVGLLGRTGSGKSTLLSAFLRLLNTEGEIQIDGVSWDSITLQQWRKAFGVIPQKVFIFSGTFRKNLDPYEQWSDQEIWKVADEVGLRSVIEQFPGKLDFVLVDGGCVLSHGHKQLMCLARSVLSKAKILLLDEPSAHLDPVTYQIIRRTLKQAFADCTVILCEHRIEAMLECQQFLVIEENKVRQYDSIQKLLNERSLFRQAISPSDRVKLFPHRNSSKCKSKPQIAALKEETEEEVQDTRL
Briefly: Membrane potential optical assay for potentiators of ΔF508-CFTR (FLIPR III, voltage sensing dyes). Type of experiment: cell-based. To be noted: for Emax: NIH3T3, 100% efficacy is the maximum response obtained with 4-methyl-2-(5-phenyl-1H-pyrazol-3-yl)phenol, ΔF508 CFTR NIH 3T3 cells; for EC50: temperature-corrected ΔF508 CFTR NIH 3T3 cells, forskolin activation. An excerpt: The assay utilizes fluorescent voltage sensing dyes to measure changes in membrane potential using a fluorescent plate reader (e.g., FLIPR III, Molecular Devices, Inc.) as a readout for increase in functional ΔF508-CFTR in NIH 3T3 cells.
To identify potentiators of ΔF508-CFTR, a double-addition HTS assay format was developed. This HTS assay utilizes fluorescent voltage sensing dyes to measure changes in membrane potential on the FLIPR III as a measurement for increase in gating (conductance) of ΔF508 CFTR in temperature-corrected ΔF508 CFTR NIH 3T3 cells.
Solutions • Bath Solution #1: (in mM) NaCl 160, KCl 4.5, CaCl2 2, MgCl2 1, HEPES 10, pH 7.4 with NaOH. • Chloride-Free Bath Solution: Chloride Salts in Bath Solution #1 are Substituted with Gluconate Salts.
NIH3T3 mouse fibroblasts stably expressing ΔF508-CFTR are used for optical measurements of membrane potential. The cells are maintained at 37° C. in 5% CO2 and 90% humidity in Dulbecco's modified Eagle's medium supplemented with 2 mM glutamine, 10% fetal bovine serum, 1×NEAA, β-ME, 1×pen/strep, and 25 mM HEPES in 175 cm^2 culture flasks. For all optical assays, the cells were seeded at ˜20,000/well in 384-well matrigel-coated plates and cultured for 2 hrs at 37° C. before culturing at 27° C. for 24 hrs. for the potentiator assay. For the correction assays, the cells are cultured at 27° C. or 37° C. with and without compounds for 16-24 hours. Electrophysiological Assays for assaying ΔF508-CFTR modulation properties of compounds.

As for `Cc1ccc(NC(=O)C2CNc3cc(OC(F)(F)F)ccc3O2)c(C#CCN2CCN(C)CC2)c1` (stereo not shown) [Compound 62], the Emax was in the range of 25 to 100% and the EC50 is less than 5 µM.
On to `N#Cc1ccc2c(c1)NCC(C(=O)Nc1cc(O)c(C3CCCC3)cc1C(F)(F)F)O2` (stereo not shown) [Compound 39], for which the Emax lay within 25 to 100% and the EC50 was less than 5 µM.
In the case of `CN(C(=O)C1CNc2ccccc2O1)c1ccc(C(C)(C)C)c(O)c1` (stereo not shown) [Compound 115, N-(4-tert-butyl-3-hydroxyphenyl)-N-methyl-3,4-dihydro-2H-benzo[b][1,4]oxazine-2-carboxamide hydrochloride], the Emax was 25 to 100% and the concentration for a half-maximal effect (EC50) was less than 5 µM.
In the case of `Cc1ccc(NC(=O)C2CNc3cc(OC(F)(F)F)ccc3O2)c(C#CCN2CCOCC2)c1` (stereo not shown) [Compound 100, N-(4-methyl-2-(3-morpholinoprop-1-ynyl)phenyl)-6-(trifluoromethoxy)-3,4-dihydro-2H-benzo[b][1,4]oxazine-2-carboxamide], the Emax is more than 100% and the EC50 was less than 5 µM.
For `CN(C)CC#Cc1cc(C2CCCC2)c(O)cc1NC(=O)C1(C)CNc2cc(OC(F)(F)F)ccc2O1` (stereo not shown) [Compound 79], in that order: more than 100% and less than 5 µM.
On to `Cc1ccc(NC(=O)C2CNc3cc(OC(F)(F)F)ccc3O2)c(CCCN(C)C)c1` (stereo not shown) [Compound 81], for which the Emax fell in the range of 25 to 100% and the EC50 lay within 5 to 20 µM.
`N#Cc1ccc2c(c1)NCC(C(=O)Nc1cc(O)c(C3CCCC3)cc1C1CCNCC1)O2` (stereo not shown) [Compound 113]: the Emax was less than 25% and the EC50 lay in the range of 5 to 20 µM.
`CC(C)(C)c1ccc(NC(=O)[C@H]2CNc3ccc(F)cc3O2)cc1O` [Compound 77]: the Emax fell in the range of 25 to 100% and the EC50 was less than 5 µM.
As for `COc1cc(NC(=O)C2CNc3ccc(F)cc3O2)c(Cl)cc1C(C)(C)O` (stereo not shown) [Compound 82], the Emax is 25 to 100% and the EC50 is less than 5 µM.
For `N#Cc1cc(C2CCCC2)c(O)cc1NC(=O)C1CNc2ccc(F)cc2O1` (stereo not shown) [Compound 23], the Emax fell in the range of 25 to 100% and the EC50 was less than 5 µM.
For `C[C@H]1CCCN1c1ccc(NC(=O)C2CNc3ccccc3O2)c(C(F)(F)F)c1` (stereo partly shown) [Compound 89], in that order: 25 to 100% and less than 5 µM.
For the compound `CC[N+](CC)(CC)CC#Cc1cc(C)ccc1NC(=O)C1CNc2cc(OC(F)(F)F)ccc2O1` (stereo not shown) [Compound 102], the Emax fell in the range of 25 to 100% and the EC50 was 5 to 20 µM.
For `Cc1cccc2c1OC(C(=O)Nc1ccc(C(C)(C)C)c(O)c1)CN2` (stereo not shown) [Compound 107], in that order: 25 to 100% and less than 5 µM.
The matching figures for `O=C(Nc1cc(O)cc(C(F)(F)F)c1)C1CNc2ccccc2O1` (stereo not shown) [Compound 57]: 25 to 100% and less than 5 µM.
On to `Cc1ccc2c(c1)NCC(C(=O)Nc1cc(O)c(C3(C)CCCCC3)cc1F)O2` (stereo not shown) [Compound 97], for which the Emax lay in the range of 25 to 100% and the EC50 was less than 5 µM.
For `Cc1ccc2c(c1)OC(C(=O)Nc1cc(O)c(C3(C)CCCCC3)cc1F)CN2` (stereo not shown) [Compound 2], the Emax lay in the range of 25 to 100% and the EC50 is less than 5 µM.
The matching figures for `Cc1ccc(NC(=O)C2CNc3cc(OC(F)(F)F)ccc3O2)c(C#CCN2CCC(F)(F)C2)c1` (stereo not shown) [Compound 45]: 25 to 100% and less than 5 µM.
Regarding `CC(C)(C)c1ccc(NC(=O)[C@@H]2CNc3ccc(F)cc3O2)cc1O` [Compound 83], the Emax lay in the range of 25 to 100% and the EC50 is less than 5 µM.
`CC(C)(C)c1ccc(NC(=O)C2CNc3cc(F)c(F)cc3O2)cc1O` (stereo not shown) [Compound 49]: the Emax fell in the range of 25 to 100% and the EC50 is less than 5 µM.
As for `CC(C)(C)c1ccc(NC(=O)C2CNc3ccc(F)cc3O2)cc1O` (stereo not shown) [Compound 35], the Emax was 25 to 100% and the EC50 is less than 5 µM.
`COc1cc(NC(=O)C2CNc3ccc(F)cc3O2)ccc1C(C)(C)C` (stereo not shown) [Compound 94]: the Emax lay within 25 to 100% and the 50% effective concentration (EC50) is less than 5 µM.
For the compound `Cc1cc(C#CC(=O)O)c(NC(=O)C2CNc3cc(OC(F)(F)F)ccc3O2)cc1O` (stereo not shown) [Compound 96], the Emax is 25 to 100% and the EC50 is less than 5 µM.
With `CC(C)(C)c1ccc(NC(=O)C2CNc3cccc(F)c3O2)cc1O` (stereo not shown) [Compound 33], the Emax lay within 25 to 100% and the EC50 is less than 5 µM.
For `CN(C)CCCc1cc(C2CCCC2)c(O)cc1NC(=O)C1CNc2cc(OC(F)(F)F)ccc2O1` (stereo not shown) [Compound 38, N-(4-cyclopentyl-2-(3-(dimethylamino)propyl)-5-hydroxyphenyl)-6-(trifluoromethoxy)-3,4-dihydro-2H-benzo[b][1,4]oxazine-2-carboxamide], in that order: 25 to 100% and less than 5 µM.
Turning to `Cc1cc(C2CCCC2)c(O)cc1NC(=O)C1CNc2cc(S(C)(=O)=O)ccc2O1` (stereo not shown) [Compound 72], the Emax lay in the range of 25 to 100% and the EC50 is less than 5 µM.
As to `COc1cc(NC(=O)C2CNc3cc(OC(F)(F)F)ccc3O2)c(C#CCN(C)C)cc1C1CCCC1` (stereo not shown) [Compound 95], the Emax is more than 100% and the EC50 is less than 5 µM.
In the case of `CC(C)(C)c1cc(C2CCCC2)c(O)cc1NC(=O)C1CNc2cc(S(C)(=O)=O)ccc2O1` (stereo not shown) [Compound 66], the Emax is 25 to 100% and the EC50 was less than 5 µM.
As to `CN1CCN(Cc2cc(C3CCCC3)c(O)cc2NC(=O)C2CNc3ccccc3O2)CC1` (stereo not shown) [Compound 52, N-(4-cyclopentyl-5-hydroxy-2-((4-methylpiperazin-1-yl)methyl)phenyl)-3,4-dihydro-2H-benzo[b][1,4]oxazine-2-carboxamide], the Emax was in the range of 25 to 100% and the EC50 is less than 5 µM.
In the case of `COc1ccc2c(c1)OC(C(=O)Nc1ccc(C(C)(C)C)c(O)c1)CN2` (stereo not shown) [Compound 1], the Emax is less than 25% and the EC50 was in the range of 5 to 20 µM.
Consider `O=C(Nc1cc(O)c(C2CCCC2)cc1C(F)(F)F)[C@H]1CNc2cc(OC(F)(F)F)ccc2O1` [Compound 32], for which the Emax lay within 25 to 100% and the EC50 was less than 5 µM.
As to `CC(C)c1ccc(NC(=O)C2CNc3cc(Cl)ccc3O2)c(C#CCN(C)C)c1` (stereo not shown) [Compound 60], the Emax is 25 to 100% and the EC50 is less than 5 µM.
For `Cc1cc(C2CCCC2)c(O)cc1NC(=O)[C@@H]1CNc2cc(C#N)ccc2O1` [Compound 25], in that order: 25 to 100% and less than 5 µM.
In the case of `CN(C)CC#Cc1cc(C2CCCC2)c(O)cc1NC(=O)[C@H]1CNc2ccccc2O1` [Compound 84], the Emax fell in the range of 25 to 100% and the EC50 is less than 5 µM.
On to `CC(C)(C)c1cc(C(C)(C)C)c(NC(=O)C2CNc3ccccc3O2)cc1O` (stereo not shown) [Compound 90], for which the Emax is 25 to 100% and the EC50 was less than 5 µM.
Regarding `CC(C)(C)c1ccc(NC(=O)C2CNc3c(F)cccc3O2)cc1O` (stereo not shown) [Compound 78], the Emax was 25 to 100% and the EC50 is less than 5 µM.
